The subject of this assay is CD2F1 mice, L1210 leukemia ip, survival T/C. Description: NCI In Vivo Anticancer Drug Screen. Data for tumor model L1210 Leukemia (intraperitoneal) in CD2F1 (CDF1) mice. Conditions: endpoint: mean survival time, higher = longer survival. Summed up:
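Ratio T/C, where T is the treated-group value and C the vehicle-dosed control value, from mice implanted with a transplantable tumor.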

[1] abbreviates: dose: 100.0 mg/kg/injection, schedule: Q01DX009 (ip), vehicle: saline with Tween-80.
The mark [2] stands for this setting: dose: 200.0 mg/kg/injection, schedule: Q01DX009 (ip), vehicle: saline with Tween-80.
Where [3] appears, read: dose: 400.0 mg/kg/injection, schedule: Q01DX009 (ip), vehicle: saline with Tween-80.
Where [4] appears, read: dose: 100.0 mg/kg/injection, schedule: Q04DX003 (ip), vehicle: saline with Tween-80.
[5] abbreviates: dose: 200.0 mg/kg/injection, schedule: Q04DX003 (ip), vehicle: saline with Tween-80.
The mark [6] stands for this setting: dose: 400.0 mg/kg/injection, schedule: Q04DX003 (ip), vehicle: saline with Tween-80.
The mark [7] stands for this setting: dose: 50.0 mg/kg/injection, schedule: Q01DX009 (ip), vehicle: saline with Tween-80.
The mark [8] stands for this setting: dose: 75.0 mg/kg/injection, schedule: Q01DX001 (ip), vehicle: other.
Where [9] appears, read: dose: 150.0 mg/kg/injection, schedule: Q01DX001 (ip), vehicle: other.

Several values for one entry are separate records, joined by “and”; a condition that tells them apart may be missing. Identical values can stand only once. Toxic doses and inconclusive results are not listed. Non-standard residues stand in square brackets, D forms with d. Residues, ends and D or L forms follow the SMILES beside them. ξ: configuration not given here. *: point of attachment. ξE = NC(CCC(=O)O)C(=O)O; Cbz = O=C(OCc1ccccc1)*; OBn = c1ccc(CO*)cc1

For `COc1ccc2c(c1)CCC(c1ccccc1)=C2c1ccc(OCCN2CCCC2)cc1`, the T/C is, setting by setting: (dose: 6.0 mg/kg/injection, schedule: Q01DX009 (ip), vehicle: saline with Tween-80) 103 % of control; (dose: 12.0 mg/kg/injection, schedule: Q01DX009 (ip), vehicle: saline with Tween-80) 106 % of control; (dose: 24.0 mg/kg/injection, schedule: Q01DX009 (ip), vehicle: saline with Tween-80) 101 % of control; (dose: 40.0 mg/kg/injection, schedule: Q04DX003 (ip), vehicle: saline with Tween-80) 104 % of control; (dose: 80.0 mg/kg/injection, schedule: Q04DX003 (ip), vehicle: saline with Tween-80) 101 % of control.

On to `CCN(CC)Cc1ccccc1COC(=O)c1ccccc1`, for which the T/C (dose: 100.0 mg/kg/injection, schedule: Q04DX002 (ip), vehicle: saline) is 98 % of control and the T/C (dose: 200.0 mg/kg/injection, schedule: Q04DX002 (ip), vehicle: saline) was 111 % of control.

Turning to `COc1ccc(-c2cc(C(=O)N/N=C/c3ccc([N+](=O)[O-])cc3)c3ccc(C)cc3n2)cc1OC`, the T/C runs as follows: under setting [1], 93 % of control; under setting [2], 106 % of control; under setting [3], 108 % of control.

With `CCCC1([N+](=O)[O-])c2ccccc2-c2ccc([N+](=O)[O-])cc21` (stereo not drawn), the T/C was 98 % of control (dose: 100.0 mg/kg/injection, schedule: Q01DX001 (ip), vehicle: saline); 96 % of control (dose: 200.0 mg/kg/injection, schedule: Q01DX001 (ip), vehicle: saline); 92 % of control (dose: 400.0 mg/kg/injection, schedule: Q01DX001 (ip), vehicle: saline).

As to `O=C(/C=C/c1ccccc1)Cc1ccccc1`, the T/C runs as follows: under setting [1], 93 % of control; under setting [4], 92 % of control; under setting [2], 98 % of control; under setting [5], 93 % of control; under setting [3], 88 % of control; under setting [6], 93 % of control.

For `Cc1cc(N2CCCN(C)CC2)nc(/N=C(\N)Nc2ccc(Cl)c(Cl)c2)n1`, under setting [4], the T/C is 88 % of control.

Turning to `O=C1CCCCc2c1ccc(O)c2[N+](=O)[O-]`, the T/C is, setting by setting: (dose: 12.5 mg/kg/injection, schedule: Q01DX009 (ip), vehicle: saline) 113 % of control; (dose: 25.0 mg/kg/injection, schedule: Q01DX009 (ip), vehicle: saline) 106 % of control; (dose: 50.0 mg/kg/injection, schedule: Q01DX009 (ip), vehicle: saline) 97 % of control.

As for `CN1CCCN(C)C1c1ccc(Cl)cc1`, the T/C is 98 % of control (dose: 6.25 mg/kg/injection, schedule: Q01DX009 (ip), vehicle: saline with Tween-80); 100 % of control (dose: 12.5 mg/kg/injection, schedule: Q01DX009 (ip), vehicle: saline with Tween-80); 94 % of control (dose: 25.0 mg/kg/injection, schedule: Q01DX009 (ip), vehicle: saline with Tween-80).

On to `COC(=O)CC(CC(=O)c1ccccc1)c1ccccc1` (stereo not drawn), for which the T/C is 94 % of control (dose: 50.0 mg/kg/injection, schedule: Q01DX009 (ip), vehicle: distilled water + Tween-80); 95 % of control and 98 % of control under setting [7]; 90 % of control (dose: 100.0 mg/kg/injection, schedule: Q01DX009 (ip), vehicle: distilled water + Tween-80); 100 % of control and 106 % of control under setting [1]; 90 % of control (dose: 200.0 mg/kg/injection, schedule: Q01DX009 (ip), vehicle: distilled water + Tween-80); 97 % of control and 100 % of control under setting [2]. For the same compound, the T/C (dose: 400.0 mg/kg/injection, schedule: Q01DX009 (ip), vehicle: distilled water + Tween-80) is 90 % of control; the T/C under setting [3] is 97 % of control and 98 % of control.

As for `CC(=O)c1ccc(Cc2ccc(C(C)=O)cc2)cc1`, the T/C runs as follows: (dose: 100.0 mg/kg/injection, schedule: Q04DX003 (ip), vehicle: Klucel (hydroxypropylcellulose) (HPC)) 103 % of control; (dose: 200.0 mg/kg/injection, schedule: Q04DX003 (ip), vehicle: Klucel (hydroxypropylcellulose) (HPC)) 98 % of control; (dose: 400.0 mg/kg/injection, schedule: Q04DX003 (ip), vehicle: Klucel (hydroxypropylcellulose) (HPC)) 97 % of control.

On to `CN1CCc2[nH]c3ccccc3c2C1`, for which the T/C runs as follows: under setting [8], 93 % of control; (dose: 100.0 mg/kg/injection, schedule: Q04DX002 (ip), vehicle: Klucel (hydroxypropylcellulose) (HPC)) 95 % of control; under setting [9], 93 % of control; (dose: 200.0 mg/kg/injection, schedule: Q04DX002 (ip), vehicle: Klucel (hydroxypropylcellulose) (HPC)) 103 % of control.

For `Nc1ccc(CCc2nc(N)[nH]c(=O)c2-c2ccc(Cl)cc2)cc1`, the T/C by setting is: (dose: 37.5 mg/kg/injection, schedule: Q01DX001 (ip), vehicle: saline with Tween-80) 100 % of control; (dose: 75.0 mg/kg/injection, schedule: Q01DX001 (ip), vehicle: saline with Tween-80) 91 % of control; (dose: 150.0 mg/kg/injection, schedule: Q01DX001 (ip), vehicle: saline with Tween-80) 94 % of control.

`CC(C)(C)C1CC[N-]CC1.CC(C)(C)C1CC[N-]CC1.O=[N+]([O-])O.O=[N+]([O-])O.[Pt+2]`: the T/C (dose: 50.0 mg/kg/injection, schedule: Q04DX002 (ip), vehicle: saline with Tween-80) is 98 % of control; the T/C (dose: 100.0 mg/kg/injection, schedule: Q04DX002 (ip), vehicle: saline with Tween-80) was 98 % of control; the T/C (dose: 200.0 mg/kg/injection, schedule: Q04DX002 (ip), vehicle: saline with Tween-80) is 95 % of control.

Regarding `CCOC(=O)C1=C(C)NC(C)=C(C(=O)OCC)C1C`, the T/C (dose: 50.0 mg/kg/injection, schedule: Q04DX003 (ip), vehicle: saline with Tween-80) was 98 % of control and 100 % of control; the T/C under setting [4] is 101 % of control and 103 % of control and 108 % of control; the T/C under setting [5] is 95 % of control and 98 % of control and 104 % of control; the T/C under setting [6] was 122 % of control.

Regarding `O=C(CNC(=O)OCc1ccccc1)NCC(=O)NC(CCC(=O)OCc1ccccc1)C(=O)OCc1ccccc1` (stereo not drawn) (Cbz-Gly-Gly-[ξE](OBn)-OBn), the T/C runs as follows: (dose: 100.0 mg/kg/injection, schedule: Q04DX003 (ip), vehicle: other) 95 % of control; (dose: 200.0 mg/kg/injection, schedule: Q04DX003 (ip), vehicle: other) 91 % of control; (dose: 400.0 mg/kg/injection, schedule: Q04DX003 (ip), vehicle: other) 95 % of control.

For `[Cl][Pt+2][Cl].[NH-]Cc1ccccc1C[NH-]`, the T/C by setting is: (dose: 3.13 mg/kg/injection, schedule: Q04DX003 (ip), vehicle: dextrose) 114 % of control; (dose: 6.25 mg/kg/injection, schedule: Q04DX003 (ip), vehicle: dextrose) 116 % of control; (dose: 12.5 mg/kg/injection, schedule: Q04DX003 (ip), vehicle: dextrose) 124 % of control; (dose: 25.0 mg/kg/injection, schedule: Q04DX003 (ip), vehicle: dextrose) 114 % of control; (dose: 50.0 mg/kg/injection, schedule: Q04DX003 (ip), vehicle: dextrose) 86 % of control.

With `CCOC(=O)c1ccc(N)cc1`, the T/C runs as follows: (dose: 12.5 mg/kg/injection, schedule: Q01DX001 (ip), vehicle: saline with Tween-80) 106 % of control; (dose: 25.0 mg/kg/injection, schedule: Q01DX001 (ip), vehicle: saline with Tween-80) 100 % of control; (dose: 50.0 mg/kg/injection, schedule: Q01DX001 (ip), vehicle: saline with Tween-80) 100 % of control; under setting [8], 97 % of control; (dose: 75.0 mg/kg/injection, schedule: Q04DX003 (ip), vehicle: saline with Tween-80) 93 % of control; under setting [9], 103 % of control. The T/C (dose: 150.0 mg/kg/injection, schedule: Q04DX003 (ip), vehicle: saline with Tween-80) is 100 % of control; the T/C (dose: 200.0 mg/kg/injection, schedule: Q01DX001 (ip), vehicle: saline with Tween-80) was 226 % of control and 96 % of control; the T/C (dose: 400.0 mg/kg/injection, schedule: Q01DX001 (ip), vehicle: saline with Tween-80) was 100 % of control and 103 % of control.

Consider `Nc1cc(C(Br)(Br)Br)nc2ccccc12`, for which the T/C (dose: 75.0 mg/kg/injection, schedule: Q01DX001 (ip), vehicle: saline) is 103 % of control.

As for `CC/C(=C\C=C\N(C)C)C(=O)OC`, the T/C is 100 % of control under setting [7], 100 % of control under setting [1] and 105 % of control under setting [2].

As for `c1ccc2nc(NCCSSCCNc3cnc4ccccc4n3)cnc2c1`, the T/C (dose: 100.0 mg/kg/injection, schedule: Q01DX009 (ip), vehicle: saline sonified) was 92 % of control; the T/C under setting [4] was 94 % of control; the T/C (dose: 200.0 mg/kg/injection, schedule: Q01DX009 (ip), vehicle: saline sonified) is 93 % of control; the T/C under setting [5] was 101 % of control; the T/C (dose: 400.0 mg/kg/injection, schedule: Q01DX009 (ip), vehicle: saline sonified) was 87 % of control; the T/C under setting [6] is 96 % of control.
